Earlier results, collected in patent publication US20230110485A1, “MULTI-LAYER PARTICLES OF FUNCTIONAL INGREDIENTS AND METHODS OF MAKING THE SAME” (Nulixir Inc., priority 2021, published 2023).

Key:
[1] = water and n-octanol; categorization at pH = 7 unless stated otherwise

Row | Compound | logP [1] | inhibitory activity against fungi (many strains of fungi)
1 | COc1cc2c(c(OC)c1OC)-c1c(cc3c(c1OC)OCO3)CC(C)C(C)C2 (single isomer, unassigned; (-)) [(-)-schisandrin B] | ~4 | –
2 | COc1cc(/C=C/c2ccccc2)oc(=O)c1 [5,6-dehydrokawain] | ~2.9 | –
3 | O=CC=Cc1ccccc1 [Cinnamaldehyde] | – | strong inhibitory activity
4 | COc1cc2c(c(OC)c1OC)-c1c(cc(OC)c(OC)c1OC)C[C@](C)(O)[C@@H](C)C2 [schisandrol A] | ~3.4 | –
5 | (-)-schisandrin C | ~3.5 | –
